This test relates to PS1ΔE9. The format is binding. Conditions: competitor at 10 µM, probes at 200 nM.

1 molecule from publication PMC3249837 (ACS chemical neuroscience, 2011) can be followed below.

The structures appear in SMILES notation.

As for `CC(C)CC[C@H](c1ccc(Cl)cc1)N1CC[C@@H](CC(=O)O)C[C@H]1c1ccc(C(F)(F)F)cc1` [Compound 1], the “Competition of probe 4 and 5 labeling of PS1ΔE9 proteoliposomes” value is recorded as “blocked”.
